Assay results from patent US20080235828A1 (University of Manitoba, priority 2004, published 2008).

Assays:
FCA-WF protein = molecular target: T1, FCA-WF protein (Arabidopsis thaliana, UniProt O04425, W619F); experiment: ABA binding assay with FCA-WF (mutated WW domain); conditions: mutation in the second W of WW domain
T1 sequence (O04425 1-747 W619F): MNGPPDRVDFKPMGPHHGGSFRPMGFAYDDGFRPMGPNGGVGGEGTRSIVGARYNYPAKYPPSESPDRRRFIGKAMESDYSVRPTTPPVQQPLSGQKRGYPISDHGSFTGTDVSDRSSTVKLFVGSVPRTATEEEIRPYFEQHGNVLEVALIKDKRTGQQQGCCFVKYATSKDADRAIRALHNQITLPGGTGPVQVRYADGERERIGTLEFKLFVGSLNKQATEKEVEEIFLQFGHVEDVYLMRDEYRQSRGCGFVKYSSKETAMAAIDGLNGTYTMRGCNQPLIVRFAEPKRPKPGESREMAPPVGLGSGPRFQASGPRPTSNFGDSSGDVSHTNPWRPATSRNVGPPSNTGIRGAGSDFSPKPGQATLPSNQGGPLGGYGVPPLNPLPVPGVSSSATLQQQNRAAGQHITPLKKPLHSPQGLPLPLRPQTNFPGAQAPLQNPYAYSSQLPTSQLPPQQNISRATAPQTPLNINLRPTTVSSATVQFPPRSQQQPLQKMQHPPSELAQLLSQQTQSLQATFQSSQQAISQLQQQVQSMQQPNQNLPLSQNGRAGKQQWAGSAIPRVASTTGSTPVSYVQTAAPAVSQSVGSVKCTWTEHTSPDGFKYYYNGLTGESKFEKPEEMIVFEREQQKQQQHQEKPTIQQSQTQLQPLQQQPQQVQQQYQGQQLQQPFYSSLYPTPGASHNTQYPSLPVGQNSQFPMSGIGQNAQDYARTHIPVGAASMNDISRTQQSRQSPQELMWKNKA
Procedure: The GST:FCA-WW-FY interaction mixture was incubated for 90 minutes before 1 μM ^3H^+-ABA was added and the mixture pelletted, washed, and the dual activity for [^35S]-met-FY and ^3H^+-ABA were counted as described above.
Similarly, FCA-WF protein was used and binding assays were carried out as above. […] The FCA ^3H^+-ABA binding activity in the absence of FY reached approximately 50% saturation at 15 minutes and approximately 95% saturation at 45 minutes. Each data point represents triplicate assays and error bars represent standard deviation.

FCA/FY interaction = experiment: GST pull-down of FCA/FY interaction in the presence of ABA; type: binding, Arabidopsis
Procedure: All in vitro translation and GST pull-down assays were carried out as described by supplier's protocols (Promega, Madison, Wis.) with modifications^S and as follows. For GST in vitro pull-down assays, 15 μL GST affinity resin was incubated with 250 μL FCA clear lysate, pelleted and the complex blocked and washed with IP buffer as described^S. For the determination of the amount of FCA bound to GST resin, the pellet was resuspended with 200 μL of 15 mM GSH to elute FCA and the supernatant was recovered by centrifugation. FY protein to be tested for interaction with the GST-FCA fusion protein was synthesized from a plasmid template and labeled with [^35S]-methionine using the T7 TNT coupled Transcription/Translation System (Promega). Twenty μL of FY labeled protein and 180 μL of interaction buffer (12.5 mM Tris-HCl, pH 7.3 containing 5 mM KCl, 1 mM MgCl2, and 100 mM NaCl) were used to resuspend the GST:FCA after the final wash. The protein binding/interaction reaction was carried out for 90 minutes at 4° C. with continuous gentle mixing. The newly formed complex was then washed three times with 500 μL of IP wash buffer. After the final wash, the complex was resuspended, first with 10 μL of 1 5 mM GSH to facilitate the dissociation of interacted proteins from GST resin and then 10 μL of 2×SDS-PAGE sample buffer was added to the mixture and boiled for 5 minutes for complete elution of the proteins from the agarose beads. The beads were pelleted by centrifugation and supernatant was loaded on a 12% SDS-PAGE gel. The gel was dried and exposed to Kodak X-ray film for 18 hours at −70° C. and film was developed for the detection of labelled proteins.
FCA was bound with […] for 30 minutes at which time the FCA/FY translated product was added to the incubation mixture. The interaction between FCA/FY was carried out in the presence of either (−)- or (+)-ABA in binding buffer as described above. Released proteins were separated on SDS-PAGE and labelled proteins were detected as described above. FCA-WW-FY was used as a control.

Substance: abscisic acid [ABA]
- 3H+-ABA binding ratio relative to non-mutated FCA-WW protein (FCA-WF protein): virtually a similar ratio
- inhibition of FCA/FY interaction (FCA/FY interaction; FCA pre-bound with ABA for 30 min): significantly inhibited
- FCA/FY interaction remaining (FCA/FY interaction; at 1 μM ABA): virtually no significant interaction
